According to publication PMC6877352, “Modifying the Siderophore Triacetylfusarinine C for Molecular Imaging of Fungal Infection” (Molecular imaging and biology, 2019):

Tests used:
[1] = system: A. fumigatus mutant strain ΔsidA/ΔftrA; test: Siderophore utilization growth assay; assay type: cell-based, Aspergillus fumigatus; details: 37 °C; for degree of utilization / growth support by [Fe]siderophore: 0.1-100 μM [Fe]siderophore in AMM; for concentration of [Fe]siderophore at which growth was supported: 48 h incubation
Description: For siderophore utilization growth assays, A. fumigatus mutant strain ΔsidA/ΔftrA [7], which can grow only in the presence of externally added iron-siderophores or at high iron concentrations, was used. The fungal strain was inoculated in iron-deficient culture as described above.
To investigate the ability or inability of A. fumigatus to take up and utilize [Fe]siderophores as iron source, a growth assay with the A. fumigatus mutant strain ΔsidA/ΔftrA was employed. In a 24-well plate, aliquots of 10^3 conidia of mutant strain were point inoculated on 1 ml of AMM containing 0.1, 1, 10, 50, or 100 μM of [Fe]siderophore and incubated at 37 °C for 48 h. For the control, fungi were grown in iron-limited AMM without adding [Fe]siderophore.

[2] = system: A. fumigatus wildtype (ATCC46645); test: In vitro uptake assay in A. fumigatus; assay type: cell-based, Aspergillus fumigatus; details: iron-starvation condition, 45 min, normalized to [^68Ga]TAFC uptake from the same experiment, n = 3
Method: For in vitro uptake studies, A. fumigatus wildtype (ATCC46645) was used. Fungal strain was cultured at 37 °C in Aspergillus minimal medium (AMM) containing 1 % (m/v) glucose as carbon source, 20 mM glutamine as nitrogen source, salts, and trace elements. Iron-sufficient media were prepared by adding FeSO4 to a final concentration of 30 μM. For iron-deficient conditions, supplementation of iron was omitted. Iron starvation was verified by the detection of extracellular siderophore production which is suppressed by iron supplementation.
Uptake assays were performed in either iron-deficient or iron-sufficient A. fumigatus wildtype cultures. In a 96-well MultiScreen Filter Plates HTS (1 μm glass fiber filter, Merck Millipore, Darmstadt, Germany), 180 μl of A. fumigatus suspended in iron-replete or iron-depleted medium was added. [^68Ga]siderophores (approx. 1 × 10^5 cpm, 80 nM) were incubated with either PBS pH 7.4 (total series) or blocking solution (10 μM [Fe]TAFC) (non-specific series) at RT for 45 min in quadriplicates. The incubation was interrupted by suction of the medium and the plate was washed twice with ice-cold TRIS-buffered saline (10 mM, pH 7.3). The filters were isolated and the remaining activities were measured in the gamma counter. The uptake was calculated as % uptake of total activity added; each assay was repeated three times. To normalize uptake variations between different fungal cultures, the uptake of each [^68Ga]siderophore was expressed as the ratio to [^68Ga]TAFC uptake from the same experiment. The mean values of three different assays were used to quantitatively compare the difference in uptake between the compounds.

Row | Compound | degree of utilization / growth support by [Fe]siderophore ([1]; 48 h) | concentration of [Fe]siderophore at which growth was supported [1] | uptake ratio to [^68Ga]TAFC [2] | further results
1 | CC(=O)NC1CCCN([O-])C(=O)C=C(C)CCOC(=O)C(NC(=O)CCC(=O)O)CCCN([O-])C(=O)C=C(C)CCOC(=O)C(NC(=O)CCC(=O)O)CCCN([O-])C(=O)C=C(C)CCOC1=O.[Fe+3] (stereo not drawn) [[Fe]MAFC(suc)2, disuccinyl[Fe]MAFC] | low degree | 1 µM |  | 
2 | tributanoyl[Fe]FSC [[Fe]TBuFC] | Medium degree |  |  | 
3 | CC1=CC(=O)N([O-])CCCC(NC(=O)CN)C(=O)OCCC(C)=CC(=O)N([O-])CCCC(NC(=O)CN)C(=O)OCCC(C)=CC(=O)N([O-])CCCC(NC(=O)CN)C(=O)OCC1.[Fe+3] (stereo not drawn) [[Fe]FSC(gly)3, triglycyl[Fe]FSC] | low degree | 1 µM |  | 
4 | CC(=O)N[C@H]1CCCN(O)C(=[OH+])/C=C(/C)CCOC(=O)[C@@H](NC(C)=O)CCCN(O)C(=[OH+])/C=C(/C)CCOC(=O)[C@@H](NC(C)=O)CCCN(O)C(=[OH+])/C=C(/C)CCOC1=O.[Fe] [[Fe]TAFC, triacetyl[Fe]FSC, reference compound] | Medium degree |  |  | 
5 | CC(=O)NC1CCCN([O-])C(=O)C=C(C)CCOC(=O)C(NC(=O)CCC(=O)O)CCCN([O-])C(=O)C=C(C)CCOC(=O)C(NC(C)=O)CCCN([O-])C(=O)C=C(C)CCOC1=O.[Fe+3] (stereo not drawn) [[Fe]DAFC(suc), succinyl[Fe]DAFC] | low degree | 1 µM |  | 
6 | CC(=O)NC1CCCN(O)C(=O)C=C(C)CCOC(=O)C(NC(=O)CN)CCCN(O)C(=O)C=C(C)CCOC(=O)C(NC(C)=O)CCCN(O)C(=O)C=C(C)CCOC1=O (stereo not drawn) (68Ga complex, metal not drawn) [DAFC(gly)] |  |  | 0.89 | uptake ratio to [^68Ga]TAFC ([2]; listed as [^68Ga]DAFC(gly)): around 1
7 | CC(=O)NC1CCCN(O)C(=O)C=C(C)CCOC(=O)C(N)CCCN(O)C(=O)C=C(C)CCOC(=O)C(N)CCCN(O)C(=O)C=C(C)CCOC1=O (stereo not drawn) (68Ga complex, metal not drawn) [MAFC] |  |  | 0.26 | 
8 | CCC(=O)NC1CCCN([O-])C(=O)C=C(C)CCOC(=O)C(NC(=O)CC)CCCN([O-])C(=O)C=C(C)CCOC(=O)C(NC(=O)CC)CCCN([O-])C(=O)C=C(C)CCOC1=O.[Fe+3] (stereo not drawn) [[Fe]TPFC, tripropanoyl[Fe]FSC] | Medium degree |  |  | 
9 | CC(=O)NC1CCCN([O-])C(=O)C=C(C)CCOC(=O)C(NC(=O)c2ccccc2)CCCN([O-])C(=O)C=C(C)CCOC(=O)C(NC(C)=O)CCCN([O-])C(=O)C=C(C)CCOC1=O.[Fe+3] (stereo not drawn) [[Fe]DABzFC, benzoyl[Fe]DAFC] | Medium degree |  |  | 
10 | CC1=CC(=O)N(O)CCCC(NC(=O)CN)C(=O)OCCC(C)=CC(=O)N(O)CCCC(NC(=O)CN)C(=O)OCCC(C)=CC(=O)N(O)CCCC(NC(=O)CN)C(=O)OCC1 (stereo not drawn) (68Ga complex, metal not drawn) [FSC(gly)3] |  |  | 0.01 | uptake ratio to [^68Ga]TAFC ([2]; listed as [^68Ga]FSC(gly)3): less than 0.05
11 | CC(=O)NC1CCCN(O)C(=O)C=C(C)CCOC(=O)C(NC(C)=O)CCCN(O)C(=O)C=C(C)CCOC(=O)C(N)CCCN(O)C(=O)C=C(C)CCOC1=O (stereo not drawn) (68Ga complex, metal not drawn) [DAFC] |  |  | 0.56 | 
12 | CC(=O)NC1CCCN([O-])C(=O)C=C(C)CCOC(=O)C(NC(=O)CN)CCCN([O-])C(=O)C=C(C)CCOC(=O)C(NC(=O)CN)CCCN([O-])C(=O)C=C(C)CCOC1=O.[Fe+3] (stereo not drawn) [[Fe]MAFC(gly)2, diglycyl[Fe]MAFC] | low degree | 1 µM |  | 
13 | CC1=CC(=O)N([O-])CCCC(NC(=O)CCC(=O)O)C(=O)OCCC(C)=CC(=O)N([O-])CCCC(NC(=O)CCC(=O)O)C(=O)OCCC(C)=CC(=O)N([O-])CCCC(NC(=O)CCC(=O)O)C(=O)OCC1.[Fe+3] (stereo not drawn) [[Fe]FSC(suc)3, trisuccinyl[Fe]FSC] | lowest level of growth |  |  | growth at 50 μM [Fe]siderophore ([1]; 50 μM, 48 h): no growth; growth at 100 μM [Fe]siderophore ([1]; 100 μM, 48 h): sporulation defect
14 | CC(=O)NC1CCCN(O)C(=O)C=C(C)CCOC(=O)C(NC(=O)CCC(=O)O)CCCN(O)C(=O)C=C(C)CCOC(=O)C(NC(C)=O)CCCN(O)C(=O)C=C(C)CCOC1=O (stereo not drawn) (68Ga complex, metal not drawn) [DAFC(suc)] |  |  | 0.33 | 
15 | CC1=CC(=O)N([O-])CCCC(N)C(=O)OCCC(C)=CC(=O)N([O-])CCCC(N)C(=O)OCCC(C)=CC(=O)N([O-])CCCC(N)C(=O)OCC1.[Fe+3] (stereo not drawn) [[Fe]FSC, [Fe]fusarinine C, reference compound] |  | 0.1 µM |  | 
16 | CC(=O)NC1CCCN([O-])C(=O)C=C(C)CCOC(=O)C(NC(=O)CN)CCCN([O-])C(=O)C=C(C)CCOC(=O)C(NC(C)=O)CCCN([O-])C(=O)C=C(C)CCOC1=O.[Fe+3] (stereo not drawn) [[Fe]DAFC(gly), glycyl[Fe]DAFC] | low degree | 1 µM |  | 
17 | CC(=O)NC1CCCN(O)C(=O)C=C(C)CCOC(=O)C(NC(=O)CCC(=O)O)CCCN(O)C(=O)C=C(C)CCOC(=O)C(NC(=O)CCC(=O)O)CCCN(O)C(=O)C=C(C)CCOC1=O (stereo not drawn) (68Ga complex, metal not drawn) [MAFC(suc)2] |  |  | 0.04 | uptake ratio to [^68Ga]TAFC ([2]; listed as [^68Ga]MAFC(suc)2): less than 0.05
18 | CC(=O)NC1CCCN([O-])C(=O)C=C(C)CCOC(=O)C(N)CCCN([O-])C(=O)C=C(C)CCOC(=O)C(N)CCCN([O-])C(=O)C=C(C)CCOC1=O.[Fe+3] (stereo not drawn) [[Fe]MAFC, acetyl[Fe]FSC] |  | 0.1 µM |  | 
19 | CCC(=O)NC1CCCN(O)C(=O)C=C(C)CCOC(=O)C(NC(C)=O)CCCN(O)C(=O)C=C(C)CCOC(=O)C(NC(C)=O)CCCN(O)C(=O)C=C(C)CCOC1=O (stereo not drawn) (68Ga complex, metal not drawn) [DAPFC] |  |  | 0.99 | uptake ratio to [^68Ga]TAFC ([2]; listed as [^68Ga]DAPFC): around 1
20 | CCCC(=O)NC1CCCN([O-])C(=O)C=C(C)CCOC(=O)C(NC(C)=O)CCCN([O-])C(=O)C=C(C)CCOC(=O)C(NC(C)=O)CCCN([O-])C(=O)C=C(C)CCOC1=O.[Fe+3] (stereo not drawn) [[Fe]DABuFC, butanoyl[Fe]DAFC] | Medium degree |  |  | 
21 | CC(=O)NC1CCCN(O)C(=O)C=C(C)CCOC(=O)C(NC(=O)CN)CCCN(O)C(=O)C=C(C)CCOC(=O)C(NC(=O)CN)CCCN(O)C(=O)C=C(C)CCOC1=O (stereo not drawn) (68Ga complex, metal not drawn) [MAFC(gly)2] |  |  | 0.03 | uptake ratio to [^68Ga]TAFC ([2]; listed as [^68Ga]MAFC(gly)2): less than 0.05
22 | CC(=O)NC1CCCN(O)C(=O)C=C(C)CCOC(=O)C(NC(=O)c2ccccc2)CCCN(O)C(=O)C=C(C)CCOC(=O)C(NC(C)=O)CCCN(O)C(=O)C=C(C)CCOC1=O (stereo not drawn) (68Ga complex, metal not drawn) [DABzFC] |  |  | 0.53 | 
23 | CC(=O)NC1CCCN([O-])C(=O)C=C(C)CCOC(=O)C(NC(C)=O)CCCN([O-])C(=O)C=C(C)CCOC(=O)C(N)CCCN([O-])C(=O)C=C(C)CCOC1=O.[Fe+3] (stereo not drawn) [[Fe]DAFC, diacetyl[Fe]FSC] |  | 0.1 µM |  | 
24 | CCC(=O)NC1CCCN([O-])C(=O)C=C(C)CCOC(=O)C(NC(C)=O)CCCN([O-])C(=O)C=C(C)CCOC(=O)C(NC(C)=O)CCCN([O-])C(=O)C=C(C)CCOC1=O.[Fe+3] (stereo not drawn) [[Fe]DAPFC, propanoyl[Fe]DAFC] | Medium degree |  |  | 
